Drawing on ChEMBL document CHEMBL1268984, “N-Substituted acetamidines and 2-methylimidazole derivatives as selective inhibitors of neuronal nitric oxide synthase” (Bioorg Med Chem Lett, 2010), this text covers IC50 and Ratio IC50 for 10 compounds.

The term IC50 denotes the concentration that inhibits the measured activity by half.

One assay concerns the target T1, Nitric oxide synthase 3 (Bos taurus, UniProt P29473).
T1 sequence (P29473 whole entry): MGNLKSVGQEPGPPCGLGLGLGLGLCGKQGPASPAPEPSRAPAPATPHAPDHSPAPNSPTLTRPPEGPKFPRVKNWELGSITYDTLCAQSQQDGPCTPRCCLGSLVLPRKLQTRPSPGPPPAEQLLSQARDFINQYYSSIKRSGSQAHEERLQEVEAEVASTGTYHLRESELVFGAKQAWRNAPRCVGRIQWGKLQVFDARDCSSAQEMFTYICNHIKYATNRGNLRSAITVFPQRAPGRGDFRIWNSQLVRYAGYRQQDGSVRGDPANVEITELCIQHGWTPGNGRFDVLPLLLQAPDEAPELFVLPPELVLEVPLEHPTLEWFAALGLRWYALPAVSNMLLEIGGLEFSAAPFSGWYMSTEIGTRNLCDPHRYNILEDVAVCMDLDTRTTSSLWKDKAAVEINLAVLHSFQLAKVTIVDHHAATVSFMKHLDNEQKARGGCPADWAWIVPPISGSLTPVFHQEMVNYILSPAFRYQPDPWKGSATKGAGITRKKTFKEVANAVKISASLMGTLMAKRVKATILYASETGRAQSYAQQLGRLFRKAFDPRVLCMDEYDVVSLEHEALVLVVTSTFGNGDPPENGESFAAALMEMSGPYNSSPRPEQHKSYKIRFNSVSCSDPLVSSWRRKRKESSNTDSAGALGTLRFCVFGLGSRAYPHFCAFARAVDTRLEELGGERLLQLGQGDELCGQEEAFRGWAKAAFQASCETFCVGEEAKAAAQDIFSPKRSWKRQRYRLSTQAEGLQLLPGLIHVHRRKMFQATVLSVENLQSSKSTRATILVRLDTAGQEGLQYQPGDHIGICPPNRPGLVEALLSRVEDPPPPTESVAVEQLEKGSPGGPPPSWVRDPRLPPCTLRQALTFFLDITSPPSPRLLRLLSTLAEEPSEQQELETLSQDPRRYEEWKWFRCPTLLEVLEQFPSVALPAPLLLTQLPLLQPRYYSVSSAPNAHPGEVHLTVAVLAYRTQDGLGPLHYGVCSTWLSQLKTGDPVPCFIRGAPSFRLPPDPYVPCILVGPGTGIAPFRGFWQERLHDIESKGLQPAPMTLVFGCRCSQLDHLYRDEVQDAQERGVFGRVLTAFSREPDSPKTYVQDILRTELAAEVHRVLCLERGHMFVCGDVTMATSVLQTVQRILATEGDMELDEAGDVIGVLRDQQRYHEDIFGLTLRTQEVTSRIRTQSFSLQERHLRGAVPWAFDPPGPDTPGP
Kind of assay: Inhibition of bovine eNOS assessed as nitric oxide mediated oxidation of oxyhemoglobin to methemoglobin.

For assay [1], the target named is T2, Nitric oxide synthase, inducible (Mus musculus, UniProt P29477).
T2 sequence (P29477 whole entry): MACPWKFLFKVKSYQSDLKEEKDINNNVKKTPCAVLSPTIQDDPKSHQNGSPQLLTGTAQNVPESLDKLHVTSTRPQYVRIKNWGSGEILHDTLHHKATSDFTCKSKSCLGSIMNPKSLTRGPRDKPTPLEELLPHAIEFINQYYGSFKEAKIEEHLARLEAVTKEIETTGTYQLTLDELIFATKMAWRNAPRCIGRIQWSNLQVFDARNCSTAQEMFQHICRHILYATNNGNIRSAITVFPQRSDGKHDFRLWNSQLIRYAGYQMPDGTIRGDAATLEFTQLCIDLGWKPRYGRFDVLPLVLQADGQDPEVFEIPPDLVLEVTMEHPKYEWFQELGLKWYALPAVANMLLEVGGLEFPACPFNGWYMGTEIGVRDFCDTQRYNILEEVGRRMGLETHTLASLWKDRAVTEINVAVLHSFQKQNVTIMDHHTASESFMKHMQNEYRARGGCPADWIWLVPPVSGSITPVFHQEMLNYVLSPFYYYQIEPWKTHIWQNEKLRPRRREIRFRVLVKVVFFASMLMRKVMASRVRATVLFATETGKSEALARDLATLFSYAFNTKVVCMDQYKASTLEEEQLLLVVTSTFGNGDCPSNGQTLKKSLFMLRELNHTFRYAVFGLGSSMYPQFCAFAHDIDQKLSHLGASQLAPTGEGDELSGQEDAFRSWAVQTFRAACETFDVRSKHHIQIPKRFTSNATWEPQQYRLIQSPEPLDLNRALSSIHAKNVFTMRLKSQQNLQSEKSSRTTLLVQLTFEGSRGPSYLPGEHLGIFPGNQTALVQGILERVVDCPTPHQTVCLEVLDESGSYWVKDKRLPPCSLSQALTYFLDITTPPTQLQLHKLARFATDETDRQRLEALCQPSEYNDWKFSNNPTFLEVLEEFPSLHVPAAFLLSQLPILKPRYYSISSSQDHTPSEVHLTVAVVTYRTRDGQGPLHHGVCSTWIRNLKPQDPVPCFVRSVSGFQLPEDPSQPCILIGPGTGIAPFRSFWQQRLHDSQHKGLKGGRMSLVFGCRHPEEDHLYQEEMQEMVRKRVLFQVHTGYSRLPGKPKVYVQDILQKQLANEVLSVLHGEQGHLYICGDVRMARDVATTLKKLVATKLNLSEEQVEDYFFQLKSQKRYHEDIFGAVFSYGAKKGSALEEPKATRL
Kind of assay: Inhibition of mouse macrophage iNOS assessed as nitric oxide mediated oxidation of oxyhemoglobin to methemoglobin.

Assay [2] can be described thus: Selectivity ratio, ratio of IC50 for mouse macrophage iNOS to IC50 for rat brain nNOS.
Assay [3] in a line: Selectivity ratio, ratio of IC50 for bovine eNOS to IC50 for rat brain nNOS.
For a further assay, the target named is Nitric oxide synthase 1 (Rattus norvegicus, UniProt P29476). The assay is described as follows: Inhibition of rat brain nNOS assessed as nitric oxide mediated oxidation of oxyhemoglobin to methemoglobin.
Chain of Nitric oxide synthase 1 (P29476 whole entry): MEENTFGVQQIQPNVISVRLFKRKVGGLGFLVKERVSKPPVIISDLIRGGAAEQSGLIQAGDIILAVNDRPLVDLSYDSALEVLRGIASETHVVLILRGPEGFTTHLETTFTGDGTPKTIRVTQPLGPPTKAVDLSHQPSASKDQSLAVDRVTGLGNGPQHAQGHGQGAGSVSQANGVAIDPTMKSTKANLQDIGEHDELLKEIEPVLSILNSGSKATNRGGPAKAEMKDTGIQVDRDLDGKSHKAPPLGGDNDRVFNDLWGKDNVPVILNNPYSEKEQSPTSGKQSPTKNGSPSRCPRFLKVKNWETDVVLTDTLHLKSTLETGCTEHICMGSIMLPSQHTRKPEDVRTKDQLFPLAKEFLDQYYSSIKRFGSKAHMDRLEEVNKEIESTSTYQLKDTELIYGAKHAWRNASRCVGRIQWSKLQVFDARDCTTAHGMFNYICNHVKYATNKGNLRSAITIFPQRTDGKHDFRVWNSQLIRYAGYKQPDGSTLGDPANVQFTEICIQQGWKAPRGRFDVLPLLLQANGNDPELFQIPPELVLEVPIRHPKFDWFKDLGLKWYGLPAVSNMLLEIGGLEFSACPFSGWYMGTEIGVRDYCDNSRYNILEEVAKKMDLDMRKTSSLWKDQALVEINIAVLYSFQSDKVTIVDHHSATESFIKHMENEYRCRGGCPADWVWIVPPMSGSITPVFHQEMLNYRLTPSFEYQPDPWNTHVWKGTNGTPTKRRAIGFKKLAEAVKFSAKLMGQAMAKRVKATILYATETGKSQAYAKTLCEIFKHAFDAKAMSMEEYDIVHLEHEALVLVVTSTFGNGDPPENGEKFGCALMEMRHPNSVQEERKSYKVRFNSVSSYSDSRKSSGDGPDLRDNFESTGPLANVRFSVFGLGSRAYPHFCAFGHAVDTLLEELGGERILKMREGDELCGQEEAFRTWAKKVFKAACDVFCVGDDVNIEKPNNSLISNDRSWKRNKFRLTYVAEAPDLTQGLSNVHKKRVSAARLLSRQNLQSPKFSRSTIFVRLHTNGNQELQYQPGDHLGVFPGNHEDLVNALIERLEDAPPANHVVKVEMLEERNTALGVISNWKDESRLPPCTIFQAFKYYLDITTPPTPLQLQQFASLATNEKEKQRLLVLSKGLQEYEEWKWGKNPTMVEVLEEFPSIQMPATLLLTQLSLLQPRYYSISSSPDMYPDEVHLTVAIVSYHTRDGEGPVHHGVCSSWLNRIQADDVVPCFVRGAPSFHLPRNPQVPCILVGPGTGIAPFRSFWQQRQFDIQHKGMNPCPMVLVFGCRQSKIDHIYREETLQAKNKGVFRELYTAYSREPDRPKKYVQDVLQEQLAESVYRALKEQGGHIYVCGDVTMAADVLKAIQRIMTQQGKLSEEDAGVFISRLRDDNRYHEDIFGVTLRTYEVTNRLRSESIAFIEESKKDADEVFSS

Take `CC(=N)NC(c1ccccc1)C(C)C` (racemic): the 50% inhibitory concentration (IC50) turned out to be 100 µM at Nitric oxide synthase 3, 10 µM in assay [1] and 0.2 µM at Nitric oxide synthase 1. Besides, the Ratio IC50 in assay [2] worked out at 50; in assay [3], 500.
Taken in the same sequence, the figures for `CC(=N)NCc1ccccc1` were 350 µM, 0.2 µM, 150 µM, 0.013 and 2.3.
For `CC(=N)N[C@@H](C)c1ccccc1`, in that order: 300 µM, 0.45 µM, 150 µM, 0.003 and 2.
For `COc1cccc(CNC(C)=N)c1`, in that order: 100 µM, 50 µM, 10 µM, 5 and 10.
For the compound `CCC(NC(C)=N)c1ccccc1` (racemic), the results for the IC50 (on Nitric oxide synthase 3; in assay [1]; on Nitric oxide synthase 1) were 80 µM, 0.25 µM and 90 µM, respectively. The figures for the Ratio IC50 in assay [2] and in assay [3] were 0.003 and 0.9, respectively.
Taken in the same sequence, the figures for `Cc1nccn1C(C)c1ccccc1` (racemic) [EFETOZOLE] were 80 µM, 100 µM, 5 µM, 20 and 16.
Taken in the same sequence, the figures for `Cc1nccn1Cc1ccncc1` were 100 µM, 12 µM, 5 µM, 2.4 and 20.
Taken in the same sequence, the figures for `CC(=N)NC(c1ccccc1)c1ccccc1` were 350 µM, 30 µM, 0.3 µM, 100 and 1170.
As to `CC(=N)NCc1ccc2c(c1)OCO2`, the figures for the IC50 (at Nitric oxide synthase 3; in assay [1]; on Nitric oxide synthase 1) were 400 µM, 800 µM and 400 µM, respectively. The Ratio IC50 stood at 2 in assay [2] and 1 in assay [3].
On to `Cc1nccn1Cc1ccccc1`, for which the IC50 turned out to be 90 µM on Nitric oxide synthase 3, 50 µM in assay [1] and 5 µM at Nitric oxide synthase 1. Also, the Ratio IC50 came to 10 in assay [2] and 18 in assay [3].
